Holding throughout (test): NCI anticancer screen, dose series, 48 h
Assay [1] relates to MDA-MB-435.
The test system of assay [2] is BT-549 breast.
Assay [3] deals with OVCAR-5 ovarian.
Assay [4] has as its system HCT-15 colon.
Assay [5] deals with CAKI-1 renal.
Assay [6] relates to K-562 leukemia.
The test system of assay [7] is UACC-257 melanoma.
In assay [8] the test system is COLO 205 colon.
Assay [9] deals with MOLT-4 leukemia.
Assay [10] has as its system PC-3 prostate.
The subject of assay [11] is NCI-H23 lung.
Assay [12] has as its system CCRF-CEM leukemia.
The test system of assay [13] is OVCAR-8 ovarian.
The test system of assay [14] is OVCAR-4 ovarian.
For assay [15], the system named is MDA-MB-231 breast.
In assay [16] the test system is SNB-75 CNS.
Assay [17] deals with U251 CNS.
Assay [18] has as its system MCF7 breast.
The test system of assay [19] is T-47D breast.

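Assay format: 96-well plates, 48-hour exposure. Definition used: TGI = concentration required for complete inhibition of growth.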 Bounds are passed on as bounds.

Consider `COc1cccc2c(=O)c3c(O)c4cc(N(C)C)ccc4c(OC(C)=O)c3oc12`, for which the TGI in assay [1] was 31.4 µM; in [2], 21.9 µM; in [3] it was > 100 µM; in assay [4] it was 25.3 µM; in assay [5] it was 16.9 µM; in assay [6] it was 97.4 µM. For the same compound, the TGI in [7] turned out to be 32.2 µM; in assay [8], 17.8 µM; in assay [9], 40.5 µM; in assay [10] it was 56.7 µM; in assay [11], 38.4 µM; in assay [12], 13.8 µM. Further, the TGI in assay [13] turned out to be 37.4 µM; in assay [14], 32 µM; in assay [15] it was 25 µM; in assay [16], 51.4 µM; in assay [17], 30.2 µM; in assay [18] it was 61.7 µM.

Consider `c1ccc2c(-c3ccnc(-c4c[nH]c5ccccc45)n3)c[nH]c2c1`, for which the TGI in [1] was > 100 µM; in assay [2], > 100 µM; in [3] it was > 100 µM; in assay [4], > 100 µM; in [5], 74.6 µM; in assay [6] it was > 100 µM. In addition, the TGI in assay [19] was 26.9 µM; in assay [7] it was > 100 µM; in assay [8], > 100 µM; in assay [9], 5.84 µM; in [10], 10.7 µM; in assay [12], 3.32 µM. In addition, the TGI was 22.9 µM in assay [13], > 100 µM in assay [14], 14.2 µM in [17] and 54.2 µM in [18].

Turning to `CCOP(=O)(OCC)OC1CC(n2cnc3c(N(CC)CC)ncnc32)OC1CO[Si](C)(C)C(C)(C)C` (centres undefined), the TGI was found to be 31.7 µM in [1]; 29.7 µM in assay [2]; 37.1 µM in assay [3]; 45 µM in assay [4]; 31.5 µM in [5]; 57.6 µM in assay [6]. Also, the TGI amounted to 27.8 µM in assay [19]; 32.4 µM in assay [7]; 32.8 µM in assay [8]; 30.7 µM in [9]; 28.5 µM in assay [10]; 37.2 µM in assay [11]. Further, the TGI came to 41.2 µM in assay [12]; 56.4 µM in assay [13]; 29.5 µM in assay [14]; 23.3 µM in assay [16]; 28.7 µM in assay [17]; 39.8 µM in assay [18].

For the compound `CC1(C)O[C@@H]([C@@H](O)[C@H](O)C2SCCCS2)[C@@H](CO)O1`, the TGI in assay [1], in [2], in assay [3], in [4], in assay [5] and in assay [6] was > 100 µM each time. The TGI in [19], in assay [7], in assay [8], in assay [9], in assay [10] and in [11] was > 100 µM throughout. Moreover, the TGI in assay [12], in [13], in assay [15], in assay [16] and in assay [17] was > 100 µM throughout.

With `CCOC(=O)CC(=O)Nc1c(C(=O)OCC)sc2nc(SC)nc(Nc3ccc(OC)c(OC)c3)c12`, the TGI in assay [1], in assay [2], in assay [3], in assay [4], in [5] and in assay [7] was > 100 µM in each case. Further, the TGI in assay [8], in assay [10], in [11], in [12], in assay [13] and in assay [14] was > 100 µM each time. Moreover, the TGI is > 100 µM in assay [15], 21.9 µM in assay [16], 25.1 µM in [17] and > 100 µM in assay [18].

Turning to `CCOC(=O)c1cc(NC(=O)c2ccccc2)c(=O)n2c(cc3c(Cl)cccc32)c1O`, the TGI in assay [1], in [2], in assay [3], in assay [4], in assay [5] and in [6] was > 100 µM in each case. Besides, the TGI in [7], in assay [8], in [9], in assay [10], in assay [11] and in [12] was > 100 µM each time. Also, the TGI in assay [13], in [14], in assay [15], in assay [17] and in assay [18] was > 100 µM each time.

With `COC1(CCO)CC=CCC1(CCO)OC` (centres undefined), the TGI in assay [2], in assay [3], in assay [4], in [5], in assay [6] and in [19] was > 100 µM in each case. The TGI in assay [7], in [8], in assay [9], in assay [10], in assay [12] and in assay [13] was > 100 µM each time. Besides, the TGI in assay [14], in [16] and in assay [18] was > 100 µM each time.

Turning to `COc1ccc2c(c1)OCC1Cc3cccc(OC)c3OC21` (centres undefined), the TGI in [1] is > 100 µM; in assay [2], 80 µM; in assay [3] it was > 100 µM; in [4], > 100 µM; in assay [5], > 100 µM; in assay [19], > 100 µM. Further, the TGI is > 100 µM in assay [7]; > 100 µM in assay [8]; 80.7 µM in assay [9]; > 100 µM in assay [10]; > 100 µM in assay [11]; > 100 µM in assay [12]. For the same compound, the TGI in [13], in assay [15] and in assay [17] was > 100 µM throughout.

For the compound `O=C(O)c1ccccc1/C=C1\Cc2ccc3c(c2C1=O)CCCC3`, the TGI in [1] was > 100 µM; in assay [2], > 100 µM; in assay [3], > 100 µM; in assay [4], > 100 µM; in assay [6], > 100 µM; in [19], 79.3 µM. In addition, the TGI in assay [7] was 68.4 µM; in [8], > 100 µM; in assay [9], 58.6 µM; in [11], 75.4 µM; in assay [12] it was 66.2 µM; in assay [13], > 100 µM. The TGI was > 100 µM in assay [14]; 62.3 µM in [15]; 86 µM in assay [16]; > 100 µM in [17]; > 100 µM in [18].

For `c1cc(-c2ccc(Oc3ccc(-c4ccncc4)cc3)cc2)ccn1`, the TGI in assay [2] was > 59.7 µM; in [3] it was > 100 µM; in [4], 96.9 µM; in [5], > 27.1 µM; in assay [6], > 100 µM; in assay [19], > 100 µM. The TGI in assay [7] is > 68.3 µM; in assay [8] it was 18.7 µM; in [9] it was 41.5 µM; in assay [10], > 100 µM; in [11], > 34 µM; in assay [12], > 47.3 µM. For the same compound, the TGI is > 100 µM in assay [13]; > 100 µM in assay [14]; > 100 µM in assay [15]; > 73.7 µM in [16]; > 48.8 µM in assay [17]; > 100 µM in [18].

As for `NC1=NC(=O)[C@H](CSCc2ccccc2)N1C(=O)OCc1ccccc1`, the TGI in [1], in assay [2], in assay [3], in assay [4], in [5] and in assay [6] was > 100 µM each time. Also, the TGI in [7], in assay [8], in [9], in assay [10], in assay [11] and in assay [13] was > 100 µM throughout. The TGI in [14], in [15], in assay [16], in assay [17] and in assay [18] was > 100 µM each time.

In the case of `CN(Cc1cnc2nc(N)nc(N)c2n1)c1ccc(C(=O)NC2CCCCC2)cc1`, the TGI in assay [2], in assay [3], in assay [4], in [5], in assay [6] and in assay [19] was > 100 µM each time. Besides, the TGI is > 100 µM in [7]; > 100 µM in [8]; > 100 µM in [9]; 46 µM in assay [10]; > 100 µM in assay [11]; > 100 µM in [12]. The TGI in assay [13] was > 100 µM; in [15], > 100 µM; in assay [16], 65.4 µM; in assay [17], 32.5 µM; in assay [18], > 100 µM.

Take `NC(=S)NS(=O)(=O)c1ccc(F)cc1`: the TGI in assay [1], in assay [2], in assay [3], in [4], in [5] and in assay [6] was > 100 µM each time. Moreover, the TGI in assay [19], in assay [7], in [8], in assay [9], in [10] and in [11] was > 100 µM throughout. The TGI in [12], in [13], in assay [14], in assay [15], in assay [16] and in assay [17] was > 100 µM throughout.

Source of the values: PubChem BioAssay (NCI).
